Assay results: patent publication US20150272952A1, “Combination” (GLAXOSMITHKLINE LLC, priority 2012, published 2015)
Read-outs that look alike come from different tables or passages of the source.

Experiments:
SK-BR3-W13 = experiment: Cell growth inhibition assay (Cell Titer Glo), SK-BR3-W13; type: cell-based; conditions: Homo sapiens
Experimental: (§1) Human tumor cell lines from breast, BT474, BT474-J4, JIMT-1, MDA-MB-361, SK-BR-3, HCC1419, UACC893 and HCC202 in RPMI 1640 containing 10% FBS media; SK-BR-3-W13 and BT474-J4 in RPMI 1640 containing 10% FBS and 1 μM Compound A (in this assay, Compound A, was used in the form of the ditosylate monohydrate salt) media were kept in a humidified incubator at 37° C. in 95% air and 5% CO2 JIMT-1 is a line derived from a patient clinically resistant to trastuzumab (Herceptin®). SK-BR-3-W13 is a single cell clone isolated by a cloning cylinder after a single treatment of SK-BR-3 cells with 0.5 μM Compound A. BT474-J4 is a single cell clone derived from BT474 cells that were selected to grow in Compound A to a concentration of 3 μM.
(§2) All cells were cultured without Compound A for a minimum of 72 hours prior to cell plating. Cells were assayed in a 96-well tissue culture plate (NUNC 136102) of RPMI containing 10% FBS at 2,000 cells/well. Approximately 24 hours after plating, cells were exposed to ten, two-fold or three-fold serial dilutions of Compound A or the combination of the two agents at a constant molar to molar ratio of 10:1 Compound A to Compound B (in this assay, Compound B refers to N-{(1S)-2-amino-1-[(3,4-difluorophenyl)methyl]ethyl}-5-chloro-4-(4-chloro-1-methyl-1H-pyrazol-5-yl)-2-furancarboxamide and was used as the free or unsalted compound) in RPMI media containing 10% FBS. Cells were incubated in the presence of compounds for 3 days. ATP levels were determined by adding Cell Titer Glo® (Promega) according to the manufacturer's protocol. Briefly, Cell Titer Glo® was added each plate, incubated for 20 minutes then luminescent signal was read on the SpectraMax L plate reader with a 0.5 sec integration time.
(§3) Inhibition of cell growth was estimated after treatment with Compound A or the combination of Compound A and Compound B for three days and comparing the signal to cells treated with vehicle (DMSO). Cell growth was calculated relative to vehicle (DMSO) treated control wells. Concentration of compound that inhibits 50% of control cell growth (IC50) was interpolated using nonlinear regression with the equation, y=(A+(B−A)/(1+(C/x)̂D)))), where A is the minimum response (ymin), B is the maximum response (ymax), C is the inflection point of the curve (EC50) and D is the Hill coefficient. […]
(§4) In general, a CI value <0.9, between 0.9 and 1.1, or >1.1 indicates synergy, additivity and antagonism, respectively. In general, the smaller the CI number, the greater is the strength of synergy. […]

JIMT1 = experiment: Cell growth inhibition assay (Cell Titer Glo), JIMT1; type: cell-based; conditions: Homo sapiens
Experimental: as §1, §2, §3, §4

MDA-MB-361 = experiment: Cell growth inhibition assay (Cell Titer Glo), MDA-MB-361; type: cell-based, Human; conditions: for IC50: Homo sapiens, 72 h, MDA-MB-361, PIK3CA E545K, 3 days, single agent; for sensitivity of the line to single agent: MDA-MB-361, E545K PIK3CA mutation
Experimental: as §1, §2, §3, §4

SK-BR-3 = experiment: Cell growth inhibition assay (Cell Titer Glo), SK-BR-3; type: cell-based; conditions: Homo sapiens
Experimental: as §1, §2, §3, §4

HCC1419 = experiment: Cell growth inhibition assay (Cell Titer Glo), HCC1419; type: cell-based; conditions: Homo sapiens
Experimental: as §1, §2, §3, §4

BT474 = experiment: Cell growth inhibition assay (Cell Titer Glo), BT474; type: cell-based; conditions: Homo sapiens
Experimental: as §1, §2, §3, §4

UACC893 = experiment: Cell growth inhibition assay (Cell Titer Glo), UACC893; type: cell-based, Human; conditions: for IC50: Homo sapiens, UACC-893, 72 h, UACC893, PIK3CA H1047R, 3 days, single agent; for sensitivity of the line to single agent: UACC893, H1047R PIK3CA mutation
Experimental: as §1, §2, §3, §4

KPL4 = experiment: Cell growth inhibition assay (Cell Titer Glo), KPL4; type: cell-based, Human; conditions: for IC50: Homo sapiens, 72 h, KPL4, PIK3CA H1047R, 3 days, single agent; for sensitivity of the line to single agent: KPL-4, H1047R PIK3CA mutation
HCC202 = experiment: Cell growth inhibition assay (Cell Titer Glo), HCC202; type: cell-based, Human; conditions: for sensitivity of the line to single agent: HCC202, E545K PIK3CA mutation; for IC50: Homo sapiens, 72 h, HCC202, PIK3CA E545K, 3 days, single agent
Experimental: as §1, §2, §3, §4

BT474-J4 = experiment: Cell growth inhibition assay (Cell Titer Glo), BT474-J4; type: cell-based, Human; conditions: for IC50: Homo sapiens, 72 h, BT474-J4 (resistant to Compound A and trastuzumab), PIK3CA K111N, 3 days, single agent
Experimental: as §1, §2
Inhibition of cell growth was estimated after treatment with Compound A or the combination of Compound A and Compound B for three days and comparing the signal to cells treated with vehicle (DMSO). Cell growth was calculated relative to vehicle (DMSO) treated control wells. […]

[1] = 72 h, SK-BR3-W13 (resistant to Compound A and trastuzumab), 3 days, single agent, read-out: Single agent (IC50, μm)
[2] = SK-BR-3-W13, single agent, bound stated, read-out: IC50
[3] = JIMT-1, 72 h, JIMT1 (resistant to Compound A and trastuzumab), PIK3CA C420R, 3 days, single agent, read-out: Single agent (IC50, μm)
[4] = JIMT-1, JIMT1, single agent, bound stated, read-out: IC50
[5] = 72 h, SK-BR-3, PIK3CA WT, 3 days, single agent, read-out: Single agent (IC50, μm)
[6] = SK-BR-3, single agent, bound stated, read-out: IC50
[7] = 72 h, HCC1419, PIK3CA WT, 3 days, single agent, read-out: Single agent (IC50, μm)
[8] = HCC1419, single agent, bound stated, read-out: IC50
[9] = BT-474, 72 h, BT474, PIK3CA K111N, 3 days, single agent, read-out: Single agent (IC50, μm)
[10] = BT-474, BT474, single agent, bound stated, read-out: IC50

Row | IC50 (SK-BR3-W13; [1]) | IC50 (SK-BR3-W13; [2]) | IC50 (MDA-MB-361) | IC50 (SK-BR-3; [5]) | IC50 (SK-BR-3; [6]) | IC50 (HCC1419; [7]) | IC50 (HCC1419; [8]) | IC50 (BT474; [9]) | IC50 (BT474; [10]) | IC50 (HCC202) | IC50 (BT474-J4) | SMILES | IC50 (JIMT1; [3]) | IC50 (JIMT1; [4]) | sensitivity of the line to single agent (MDA-MB-361) | IC50 (UACC893) | sensitivity of the line to single agent (UACC893) | IC50 (KPL4) | sensitivity of the line to single agent (KPL4) | sensitivity of the line to single agent (HCC202) | sensitivity of the line to cell growth inhibition (BT474-J4; BT474-J4, single agent)
1 | 5600 ± 1050 nM | > 5000 nM | > 10000 nM | 196 ± 70 nM | < 200 nM | 84 ± 34 nM | < 200 nM | 171 ± 34 nM | < 200 nM | 2408 ± 22 nM | 5180 ± 2200 nM | CS(=O)(=O)CCNCc1ccc(-c2ccc3ncnc(Nc4ccc(OCc5cccc(F)c5)c(Cl)c4)c3c2)o1 [Compound A, N-{3-Chloro-4-[(3-fluorobenzyl)oxy]phenyl}-6-[5-({[2-(methanesulphonyl)ethyl]amino}methyl)-2-furyl]-4-quinazolinamine, reference compound] | 7780 ± 1270 nM | > 5000 nM | less sensitive | 492 ± 498 nM | sensitive | 430 ± 159 nM | sensitive | less sensitive | 
2 | > 1000 nM | > 1000 nM | 151 ± 22 nM | > 1000 nM | > 500 nM | 573 ± 154 nM | > 500 nM | > 1000 nM | > 500 nM | 919 ± 356 nM | 142 ± 47 nM | Cn1ncc(Cl)c1-c1cc(C(=O)N[C@H](CN)Cc2ccc(F)c(F)c2)oc1Cl [Compound B, N-{(1S)-2-amino-1-[(3,4-difluorophenyl)methyl]ethyl}-5-chloro-4-(4-chloro-1-methyl-1H-pyrazol-5-yl)-2-furancarboxamide] | > 1000 nM | > 1000 nM | less sensitive | 30 ± 27 nM | sensitive | 19 ± 4 nM | sensitive | less sensitive | sensitive
